Here are results for three molecules from US10238688B2, “Combination therapies for bladder cancer” (GENEDIA BIOTECH CO. LTD., priority 2015, dated 2019).

The subject of one test is 5637. Nature of the test: MTT cell survival / IC50, 5637 cells. To be noted: 5637; for Single drug 4X Cell Survival (%): ng/ml: EH 1000, Ci 6000, Mi 800, Pi 160, Pa 640, Ge 20, EH/Ci/Mi regimen; for Cell survival (%): Table S3, ng/ml: Pi 40, Pa 160, EH 250, Ci 1500, Mi 200, 1=Ci/Mi, 2=EH/Ci/Mi, 3=Pa/Ci/Mi, 4=Pi/Ci/Mi. The format is cell-based, human. As for the experimental part:
(§1) The clinical grade of the chemotherapeutics (NCI Dictionary of Cancer Terms) was provided by the First Affiliated Hospital of Harbin Medical University: Pirarubicin (Pi, Wanle, Shenzhen), Paclitaxel (Pa, Taiji, Sichuan), Adriamycin (Ad, Pfizer, Jiangsu), Epirubicin Hydrochloride (EH, Haizheng, Zhejiang), Hydroxycamptothecin (Hy, Lishizhen, Hubei), Cisplatin (Ci, Haosen, Jiangsu), Gemcitabine (Ge, Haosen, Jiangsu) and Mitomycin (Mi, Haizheng, Zhejiang). The drug induced cell death was determined by a thiazolyl […] (MTT, 490 nm reading) based cell proliferation assay in the cultured cells following treatment by various concentrations of drugs for 72 hours. The relative chemoresistance to each drug of all cell lines was calculated with the lowest IC50 as a reference. The overall chemoresistance of each cell line was described as “chemoresistance index”, the numerator of the total relative IC50 to all the drugs over the number of drugs to rank the overall resistance state of each cell line to the six chemotherapeutics collectively.
(§2) The relative IC50 (fold) of each drug of all nine cell lines was normalized to the lowest IC50 in the most sensitive cell line (FIG. 2G), to describe the single drug resistance of cell lines. The overall chemoresistance of each cell line, a “chemoresistance index” (the numerator of the total relative IC50 over the number of drugs) (FIG. 2G) were calculated to rank the overall resistance state of each cell line to this six chemotherapeutics.
(§3) Twenty six-drug combinations at the indicated doses were initially generated through a random number generator (using MATLAB MathWorks©, Natick, Mass., U.S.) (The upper half of Table 1). The cell survival (% over the not drug control) of treated cells was determined and then used for a calculation of the average cumulative cell survival (%, ACS: the sum of cell survival (%) per combination divided by the number of cell lines tested). ACS<30% was used to separate the effective from the not-effective combinations.

A further test relates to H-bc. The test is described as follows: MTT cell survival / IC50, H-bc cells. The format is cell-based, human. Conditions: H-bc; for Single drug 4X Cell Survival (%): ng/ml: EH 1000, Ci 6000, Mi 800, Pi 160, Pa 640, Ge 20, EH/Ci/Mi regimen; for Cell survival (%): Table S3, ng/ml: Pi 40, Pa 160, EH 250, Ci 1500, Mi 200, 1=Ci/Mi, 2=EH/Ci/Mi, 3=Pa/Ci/Mi, 4=Pi/Ci/Mi. As for the experimental part: as §1, §2, §3

Another test concerns T24. Nature of the test: MTT cell survival / IC50, T24 cells. The format is cell-based, human. Conditions: for Single drug 4X Cell Survival (%): ng/ml: EH 1000, Ci 6000, Mi 800, Pi 160, Pa 640, Ge 20, EH/Ci/Mi regimen; for Cell survival (%): Table S3, ng/ml: Pi 40, Pa 160, EH 250, Ci 1500, Mi 200, 1=Ci/Mi, 2=EH/Ci/Mi, 3=Pa/Ci/Mi, 4=Pi/Ci/Mi. The protocol: as §1, §2, §3
Another test has as its system EJ. Nature of the test: MTT cell survival / IC50, EJ cells. The format is cell-based, human. Conditions: for Single drug 4X Cell Survival (%): ng/ml: EH 1000, Ci 6000, Mi 800, Pi 160, Pa 640, Ge 20, EH/Ci/Mi regimen; for Cell survival (%): Table S3, ng/ml: Pi 40, Pa 160, EH 250, Ci 1500, Mi 200, 1=Ci/Mi, 2=EH/Ci/Mi, 3=Pa/Ci/Mi, 4=Pi/Ci/Mi. As for the experimental part: as §1, §2, §3

For another test, the system named is Biu87. Nature of the test: MTT cell survival / IC50, Biu87 cells. The format is cell-based, human. Conditions: Biu87; for Single drug 4X Cell Survival (%): ng/ml: EH 1000, Ci 6000, Mi 800, Pi 160, Pa 640, Ge 20, EH/Ci/Mi regimen; for Cell survival (%): Table S3, ng/ml: Pi 40, Pa 160, EH 250, Ci 1500, Mi 200, 1=Ci/Mi, 2=EH/Ci/Mi, 3=Pa/Ci/Mi, 4=Pi/Ci/Mi. The protocol:
as §1, §2, §3

For another test, the system named is UM-UC-3. The test is described as follows: MTT cell survival / IC50, UM-UC-3 cells. To be noted: UM-UC-3; for Single drug 4X Cell Survival (%): ng/ml: EH 1000, Ci 6000, Mi 800, Pi 160, Pa 640, Ge 20, EH/Ci/Mi regimen; for Cell survival (%): Table S3, ng/ml: Pi 40, Pa 160, EH 250, Ci 1500, Mi 200, 1=Ci/Mi, 2=EH/Ci/Mi, 3=Pa/Ci/Mi, 4=Pi/Ci/Mi. The format is cell-based, human. As for the experimental part:
as §1, §2, §3

The subject of a further test is SCaBER. The test is described as follows: MTT cell survival / IC50, SCaBER squamous carcinoma cells. The format is cell-based, human. Conditions: for Single drug 4X Cell Survival (%): ng/ml: EH 1000, Ci 6000, Mi 800, Pi 160, Pa 640, Ge 20, EH/Ci/Mi regimen; for Cell survival (%): Table S3, ng/ml: Pi 40, Pa 160, EH 250, Ci 1500, Mi 200, 1=Ci/Mi, 2=EH/Ci/Mi, 3=Pa/Ci/Mi, 4=Pi/Ci/Mi. The protocol:
as §1, §2

Another test concerns SV-HUC-1. The format is cell-based. To be noted: SV-HUC-1; ng/ml: EH 1000, Ci 6000, Mi 800, Pi 160, Pa 640, Ge 20; EH/Ci/Mi regimen. The protocol:
as §1, §2

Test [1] has as its system bladder cancer cell lines. Nature of the test: Average cumulative cell survival (ACS) over the panel of cell lines tested. Conditions: for ACS (%) for cancer cells: seven cancer cell lines, ng/ml: EH 1000, Ci 6000, Mi 800, Pi 160, Pa 640, Ge 20, EH/Ci/Mi regimen; for ACS (%): eight cell lines, Table S3, ng/ml: Pi 40, Pa 160, EH 250, Ci 1500, Mi 200, 1=Ci/Mi, 2=EH/Ci/Mi, 3=Pa/Ci/Mi, 4=Pi/Ci/Mi. The format is cell-based, human. The protocol: as §1
The “Differential Evolution” algorithm guided experimental optimization (DE) consisted of three iterative operations: generating drug combinations of experimental testing, acquiring the efficacy of the generated drug combinations with biological assays and recalculating further improved drug combinations using a feedback search algorithm. This example first tested twenty drug combinations at randomized doses. These drug combinations were generated from a random integer matrix generator, coded in MATLAB™ language. These twenty drug combinations were then experimentally tested for cancer cell cytotoxicity. The experimental data were then subjected to calculation with a DE algorithm for new drug combinations based on three major mathematical calculations: “Mutation”, “Crossover” and “Selection”. The equations for each step can be found in the main test. The equations for each step are coded in MATLAB™ language.
as §3, with “combinations. Nine of the twenty combinations tested in the 1st round of iteration fell into this category (the lower half of Table 1).” for “combinations.”

Another test has as its system J-82. Nature of the test: MTT cell survival / IC50, J-82 cells. To be noted: J82; Table S3; ng/ml: Pi 40, Pa 160, EH 250, Ci 1500, Mi 200; 1=Ci/Mi, 2=EH/Ci/Mi, 3=Pa/Ci/Mi, 4=Pi/Ci/Mi. The format is cell-based, human. As for the experimental part: as §1, §2, §3

On to `Nc1ccn([C@@H]2O[C@H](CO)[C@@H](O)C2(F)F)c(=O)n1` [Ge, Gemcitabine], for which the “Single drug 4X Cell Survival (%)” value in the test on 5637 came to 30.06%; in the test with H-bc, 83.17%; with T24 it was 41.49%; with EJ, 31.95%; with Biu87, 30.82%; with UM-UC-3, 46.97%. In addition, the “Single drug 4X Cell Survival (%)” value in the test with SCaBER turned out to be 30.87%; in the test with SV-HUC-1, 87.83%. Besides, the “ACS (%) for cancer cells” value in test [1] was 42.19%.

Take `CC(=O)O[C@H]1C(=O)[C@@]2(C)[C@H]([C@H](OC(=O)c3ccccc3)[C@]3(O)C[C@H](OC(=O)[C@H](O)[C@@H](NC(=O)c4ccccc4)c4ccccc4)C(C)=C1C3(C)C)[C@]1(OC(C)=O)CO[C@@H]1C[C@@H]2O` [Pa, Paclitaxel]: the “Cell survival (%)” value was 6.45% in the test with 5637; 13.96% in the test with H-bc; 38.51% with J-82; 11.55% with T24; 33.05% in the test on EJ; 23.08% in the test on Biu87. In addition, the “Cell survival (%)” value in the test with UM-UC-3 turned out to be 40.09%; with SCaBER, 57.91%. Moreover, the “Single drug 4X Cell Survival (%)” value in the test with 5637 came to 2.09%; with H-bc, 12.89%; with T24, 17.31%; in the test with EJ it was 26.38%; in the test with Biu87, 17.58%; with UM-UC-3, 27.74%. Also, the “Single drug 4X Cell Survival (%)” value in the test with SCaBER turned out to be 42.21%; with SV-HUC-1, 80.17%. Also, in [1], the “ACS (%)” value worked out at 28.08%. For the same molecule, in test [1], the “ACS (%) for cancer cells” value was 20.89%.

For `COc1cccc2c1C(=O)c1c(O)c3c(c(O)c1C2=O)C[C@@](O)(C(=O)CO)CC3O[C@H]1C[C@H](N)[C@H](O[C@@H]2CCCCO2)[C@H](C)O1` (stereo partly drawn) [Pi, (3S)-3-glycoloyl-3,5,12-trihydroxy-10-methoxy-6,11-dioxo-1,2,3,4,6,11-hexahydrotetracen-1-yl 3-amino-2,3,6-trideoxy-4-O-[(2R)-tetrahydro-2H-pyran-2-yl]-α-L-lyxo-hexopyranoside], the “Cell survival (%)” value came out at 29.22% in the test on 5637; 86.89% with H-bc; 55.37% in the test with J-82; 48.33% in the test on T24; 30.38% in the test on EJ; 41.67% with Biu87. In addition, the “Cell survival (%)” value in the test on UM-UC-3 was determined as 65.59%; in the test on SCaBER, 30.04%. Besides, the “Single drug 4X Cell Survival (%)” value in the test with 5637 is reported as 3.48%; in the test on H-bc, 16.04%; with T24, 39.8%; with EJ, 21.25%; with Biu87, 26.98%; with UM-UC-3, 31.44%. In addition, the “Single drug 4X Cell Survival (%)” value in the test with SCaBER came to 10.24%; in the test on SV-HUC-1, 91.79%. Further, in test [1], the “ACS (%)” value is given as 48.44%. Further, in [1], the “ACS (%) for cancer cells” value amounted to 21.32%.
